Data from ChEMBL document CHEMBL1201862, “PubChem BioAssay data set” (2004).
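These data come from cells grown in 96-well plates and exposed to compound for 48 hours at five concentrations. GI50 = concentration required for 50% inhibition of growth.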 Calls of active or inactive are those of the source. Rule as the data show it: active = GI50 up to about 1.1 µM and inactive = higher.

Columns and labels:
Assay in all cases: NCI tumour cell line growth inhibition, 48 h
HT-29 = tested on: HT-29
NCI-H522 = tested on: NCI-H522
SF-295 = tested on: SF-295
DMS-273 = tested on: DMS-273
XF498 = tested on: XF498
IGROV-1 = tested on: IGROV-1
HOP-18 = tested on: HOP-18
KM12 = tested on: KM12
SF-539 = tested on: SF-539
EKVX = tested on: EKVX
SK-MEL-5 = tested on: SK-MEL-5
SN12C = tested on: SN12C
A498 = tested on: A498
SNB-78 = tested on: SNB-78
DLD-1 = tested on: DLD-1
OVCAR-5 = tested on: OVCAR-5
CAKI-1 = tested on: CAKI-1

Measured: GI50

COc1ccc(OC)c(NCC#N)c1
inactive: HT-29 > 100 µM | NCI-H522 > 100 µM | SF-295 > 100 µM | DMS-273 > 100 µM | XF498 > 100 µM | IGROV-1 > 100 µM | HOP-18 > 100 µM | KM12 > 100 µM | SF-539 > 100 µM | EKVX > 100 µM | SK-MEL-5 > 100 µM | SN12C > 100 µM | A498 > 100 µM

CC1CC2OC(=O)C3CC(O)CC(=C23)[C@@]12C[C@@H](c1ccoc1)OC2=O (stereo partly specified)
inactive: HT-29 > 100 µM | NCI-H522 > 100 µM | SF-295 > 100 µM | DMS-273 > 100 µM | XF498 > 100 µM | IGROV-1 > 100 µM | HOP-18 > 100 µM | KM12 > 100 µM | SF-539 > 100 µM | SNB-78 > 100 µM | EKVX > 100 µM | SK-MEL-5 > 100 µM | SN12C > 100 µM | DLD-1 > 100 µM | OVCAR-5 > 100 µM

CC(=O)OCCOCNC(=S)N/N=C/c1cc([N+](=O)[O-])ccc1O
inactive: HT-29 > 100 µM | NCI-H522 30.5 µM | SF-295 > 100 µM | DMS-273 > 100 µM | XF498 > 100 µM | IGROV-1 > 100 µM | HOP-18 > 100 µM | KM12 > 100 µM | SF-539 > 100 µM | SNB-78 > 100 µM | EKVX > 100 µM | SK-MEL-5 > 100 µM | SN12C > 100 µM | DLD-1 > 100 µM | OVCAR-5 > 100 µM | A498 > 100 µM

C=CCC1[C@@H](C(C)(C)C(C(C)=O)C(=O)C(=O)OC)OC(C(C)(C)C)N1C(=O)OC (stereo partly specified)
inactive: HT-29 > 100 µM | NCI-H522 > 100 µM | SF-295 > 100 µM | XF498 > 100 µM | HOP-18 > 100 µM | KM12 > 100 µM | SF-539 > 100 µM | SNB-78 > 100 µM | EKVX > 100 µM | SK-MEL-5 > 100 µM | SN12C > 100 µM | DLD-1 > 100 µM | OVCAR-5 61.5 µM | A498 > 100 µM

O=c1oc2c3ccc4ccccc4c3n(CCN3CCCCC3)c2c2ccccc12
inactive: HT-29 10.1 µM | NCI-H522 17.9 µM | SF-295 16.8 µM | DMS-273 38.3 µM | XF498 21.4 µM | IGROV-1 > 55.2 µM | HOP-18 > 100 µM | KM12 79.1 µM | SF-539 17.1 µM | SNB-78 20.9 µM | EKVX > 87.5 µM | CAKI-1 48.2 µM | SK-MEL-5 40.7 µM | SN12C > 100 µM | DLD-1 30.2 µM | OVCAR-5 > 100 µM

CC(=O)OCCOCNC(=S)N/N=C/c1ccc2ccccc2n1
inactive: HT-29 40.6 µM | NCI-H522 14.1 µM | SF-295 44.6 µM | DMS-273 36.1 µM | XF498 > 100 µM | IGROV-1 44.6 µM | HOP-18 75.9 µM | KM12 55.7 µM | SF-539 46.9 µM | SNB-78 > 100 µM | EKVX 32.7 µM | SK-MEL-5 23.9 µM | SN12C 48 µM | DLD-1 54.1 µM | OVCAR-5 14.3 µM | A498 > 100 µM

c1ccc2c(c1)N=C(c1ccc3ccccc3c1)CC(c1cccc3ccccc13)S2 (stereo unspecified)
inactive: HT-29 30.2 µM | NCI-H522 24.3 µM | SF-295 47.1 µM | DMS-273 36.1 µM | XF498 35 µM | IGROV-1 14 µM | HOP-18 > 100 µM | KM12 18.9 µM | SF-539 51.6 µM | EKVX 61.4 µM | CAKI-1 55.8 µM | SK-MEL-5 38.5 µM | SN12C 59.3 µM | DLD-1 11.6 µM | OVCAR-5 > 100 µM | A498 27.5 µM

Cc1ccccc1NC(=O)CSc1nnc(-c2ccc(/N=C\c3ccc(Cl)cc3)cc2)o1
inactive: HT-29 > 100 µM | SF-295 > 100 µM | DMS-273 > 100 µM | XF498 > 100 µM | HOP-18 > 100 µM | KM12 > 100 µM | SNB-78 > 100 µM | EKVX > 100 µM | SK-MEL-5 > 100 µM | SN12C > 100 µM

CCOC(=O)C1(Br)C(c2ccccc2)NC(=O)NC1(C)Br (stereo unspecified)
inactive: HT-29 > 100 µM | NCI-H522 30.3 µM | SF-295 > 100 µM | DMS-273 90.2 µM | XF498 52.2 µM | IGROV-1 54.6 µM | HOP-18 > 100 µM | KM12 > 100 µM | SNB-78 > 100 µM | EKVX 95.3 µM | CAKI-1 18.5 µM | SK-MEL-5 57.4 µM | SN12C 59.6 µM | DLD-1 55.7 µM | OVCAR-5 > 100 µM | A498 > 100 µM

COC(=O)/C([Se]c1c(C)cc(C)cc1C)=C(/[Se]c1c(C)cc(C)cc1C)C(=O)OC
inactive: HT-29 91.2 µM | NCI-H522 > 100 µM | SF-295 > 100 µM | DMS-273 > 100 µM | IGROV-1 > 100 µM | HOP-18 > 100 µM | KM12 > 100 µM | SF-539 > 100 µM | SNB-78 > 100 µM | EKVX > 100 µM | CAKI-1 > 100 µM | SK-MEL-5 86.3 µM | SN12C > 100 µM | DLD-1 > 100 µM | OVCAR-5 > 100 µM | A498 > 100 µM

Cc1ccc([N+](=O)[O-])cc1NC(=O)C(=O)Cc1cc(=O)oc2cc(O)ccc12
inactive: HT-29 > 100 µM | NCI-H522 > 100 µM | SF-295 > 100 µM | XF498 > 100 µM | IGROV-1 > 100 µM | HOP-18 > 100 µM | KM12 > 100 µM | SF-539 > 100 µM | SNB-78 > 100 µM | EKVX > 100 µM | CAKI-1 > 100 µM | SK-MEL-5 > 100 µM | SN12C > 100 µM | DLD-1 > 100 µM | OVCAR-5 > 100 µM | A498 > 100 µM

CN(/N=C/c1cccc2cccnc12)c1ccc([N+](=O)[O-])cc1
inactive: HT-29 20.7 µM | SF-295 > 100 µM | DMS-273 > 100 µM | XF498 > 100 µM | IGROV-1 > 100 µM | HOP-18 > 100 µM | KM12 > 100 µM | SF-539 7.69 µM | SNB-78 > 100 µM | EKVX > 100 µM | CAKI-1 > 100 µM | SK-MEL-5 > 100 µM | SN12C > 100 µM | DLD-1 > 100 µM | OVCAR-5 > 100 µM | A498 > 100 µM

Clc1ccc(SCCSCCCCCCCCCCSCCSc2ccc(Cl)cc2)cc1
inactive: HT-29 > 100 µM | NCI-H522 > 100 µM | SF-295 > 100 µM | DMS-273 > 100 µM | IGROV-1 > 100 µM | HOP-18 > 100 µM | KM12 > 100 µM | SF-539 > 100 µM | SNB-78 > 100 µM | EKVX > 100 µM | CAKI-1 > 100 µM | SK-MEL-5 > 100 µM | SN12C > 100 µM | DLD-1 > 100 µM | OVCAR-5 > 100 µM | A498 > 100 µM
